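Where inhibition never reached the appropriate level, the endpoint shown equals the highest concentration tested. Otherwise, values were interpolated linearly from a five-concentration, 48-hour dose response in 96-well plates. Definition used: TGI = concentration required for complete inhibition of growth.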
Assays:
Experiment in all cases: NCI tumour cell line growth inhibition, 48 h
786-0 renal = system: 786-0 renal
COLO 205 colon = system: COLO 205 colon
SNB-75 CNS = system: SNB-75 CNS
HOP-62 NSCLC = system: HOP-62 NSCLC
OVCAR-4 ovarian = system: OVCAR-4 ovarian
SK-MEL-28 melanoma = system: SK-MEL-28 melanoma
IGROV1 ovarian = system: IGROV1 ovarian
DMS 114 small cell lung = system: DMS 114 small cell lung
MALME-3M melanoma = system: MALME-3M melanoma
CAKI-1 renal = system: CAKI-1 renal
NCI-H226 lung = system: NCI-H226 lung
SF-268 CNS = system: SF-268 CNS
ACHN renal = system: ACHN renal
XF 498 CNS = system: XF 498 CNS
NCI-H522 lung = system: NCI-H522 lung
HOP-92 NSCLC = system: HOP-92 NSCLC
HCC-2998 colon = system: HCC-2998 colon
NCI-H23 lung = system: NCI-H23 lung
UACC-62 melanoma = system: UACC-62 melanoma
CCRF-CEM leukemia = system: CCRF-CEM leukemia
SNB-78 CNS = system: SNB-78 CNS
M19-MEL melanoma = system: M19-MEL melanoma
M14 melanoma = system: M14 melanoma
UO-31 renal = system: UO-31 renal
RPMI-8226 leukemia = system: RPMI-8226 leukemia
SK-MEL-2 melanoma = system: SK-MEL-2 melanoma
DMS 273 small cell lung = system: DMS 273 small cell lung
SR leukemia = system: SR leukemia
DLD-1 colon = system: DLD-1 colon
LXFL 529 NSCLC = system: LXFL 529 NSCLC
SF-539 CNS = system: SF-539 CNS
SK-OV-3 ovarian = system: SK-OV-3 ovarian
MOLT-4 leukemia = system: MOLT-4 leukemia
RXF-631 renal = system: RXF-631 renal
SN12C renal = system: SN12C renal
A498 renal = system: A498 renal
HL-60(TB) leukemia = system: HL-60(TB) leukemia
K-562 leukemia = system: K-562 leukemia
HCT-116 colon = system: HCT-116 colon
U251 CNS = system: U251 CNS
SNB-19 CNS = system: SNB-19 CNS
TK-10 renal = system: TK-10 renal
OVCAR-8 ovarian = system: OVCAR-8 ovarian
OVCAR-5 ovarian = system: OVCAR-5 ovarian
HCT-15 colon = system: HCT-15 colon
SW-620 colon = system: SW-620 colon
NCI-H460 lung = system: NCI-H460 lung
LOX IMVI melanoma = system: LOX IMVI melanoma
SF-295 CNS = system: SF-295 CNS
SK-MEL-5 melanoma = system: SK-MEL-5 melanoma
RXF 393 renal = system: RXF 393 renal
KM20L2 colon = system: KM20L2 colon
UACC-257 melanoma = system: UACC-257 melanoma
EKVX NSCLC = system: EKVX NSCLC
HOP-18 NSCLC = system: HOP-18 NSCLC
KM12 colon = system: KM12 colon
OVCAR-3 ovarian = system: OVCAR-3 ovarian
A549 NSCLC = system: A549 NSCLC

Cc1cn(C2CC(N(C)C)C(CO)O2)c(=O)[nH]c1=O (centres undefined)
TGI (786-0 renal): > 100 µM | TGI (COLO 205 colon): > 100 µM | TGI (SNB-75 CNS): > 100 µM | TGI (HOP-62 NSCLC): > 100 µM | TGI (OVCAR-4 ovarian): > 100 µM | TGI (SK-MEL-28 melanoma): > 100 µM | TGI (IGROV1 ovarian): > 100 µM | TGI (DMS 114 small cell lung): > 100 µM | TGI (MALME-3M melanoma): > 100 µM | TGI (CAKI-1 renal): > 100 µM | TGI (NCI-H226 lung): > 100 µM | TGI (SF-268 CNS): > 100 µM | TGI (ACHN renal): > 100 µM | TGI (XF 498 CNS): > 100 µM | TGI (NCI-H522 lung): > 100 µM | TGI (HOP-92 NSCLC): > 100 µM | TGI (HCC-2998 colon): > 100 µM | TGI (NCI-H23 lung): > 100 µM | TGI (UACC-62 melanoma): > 100 µM | TGI (CCRF-CEM leukemia): > 100 µM | TGI (SNB-78 CNS): > 100 µM | TGI (M19-MEL melanoma): > 100 µM | TGI (M14 melanoma): > 100 µM | TGI (UO-31 renal): > 100 µM | TGI (RPMI-8226 leukemia): > 100 µM | TGI (SK-MEL-2 melanoma): > 100 µM | TGI (DMS 273 small cell lung): > 100 µM | TGI (SR leukemia): > 100 µM | TGI (DLD-1 colon): > 100 µM | TGI (LXFL 529 NSCLC): > 100 µM | TGI (SF-539 CNS): > 100 µM | TGI (SK-OV-3 ovarian): > 100 µM | TGI (MOLT-4 leukemia): > 100 µM | TGI (RXF-631 renal): > 100 µM | TGI (SN12C renal): > 100 µM | TGI (A498 renal): > 100 µM | TGI (HL-60(TB) leukemia): > 100 µM | TGI (K-562 leukemia): > 100 µM | TGI (HCT-116 colon): > 100 µM

COc1ccc2[nH]c3c(c2c1)[C@H](C)C[C@@H]1C(=O)N(c2ccccc2)C(=O)[C@H]31
TGI (786-0 renal): 48.5 µM | TGI (U251 CNS): 32.4 µM | TGI (SNB-19 CNS): > 100 µM | TGI (COLO 205 colon): > 100 µM | TGI (TK-10 renal): > 100 µM | TGI (SNB-75 CNS): 48.1 µM | TGI (HOP-62 NSCLC): 52.5 µM | TGI (OVCAR-4 ovarian): 45.2 µM | TGI (SK-MEL-28 melanoma): > 100 µM | TGI (IGROV1 ovarian): > 100 µM | TGI (DMS 114 small cell lung): > 100 µM | TGI (MALME-3M melanoma): 79.8 µM | TGI (CAKI-1 renal): > 100 µM | TGI (OVCAR-8 ovarian): 37.8 µM | TGI (SF-268 CNS): 63.1 µM | TGI (ACHN renal): > 100 µM | TGI (XF 498 CNS): 74.1 µM | TGI (NCI-H522 lung): 42.1 µM | TGI (OVCAR-5 ovarian): > 100 µM | TGI (HOP-92 NSCLC): 42.6 µM | TGI (HCC-2998 colon): > 100 µM | TGI (NCI-H23 lung): 66.8 µM | TGI (HCT-15 colon): > 100 µM | TGI (UACC-62 melanoma): > 100 µM | TGI (SW-620 colon): > 100 µM | TGI (CCRF-CEM leukemia): > 100 µM | TGI (NCI-H460 lung): > 100 µM | TGI (LOX IMVI melanoma): > 100 µM | TGI (M19-MEL melanoma): > 100 µM | TGI (SF-295 CNS): 70.9 µM | TGI (M14 melanoma): > 100 µM | TGI (SK-MEL-5 melanoma): > 100 µM | TGI (UO-31 renal): > 100 µM | TGI (SK-MEL-2 melanoma): > 100 µM | TGI (DMS 273 small cell lung): > 100 µM | TGI (RXF 393 renal): 53.1 µM | TGI (SR leukemia): 70.1 µM | TGI (DLD-1 colon): > 100 µM | TGI (LXFL 529 NSCLC): > 100 µM | TGI (SF-539 CNS): 41 µM | TGI (KM20L2 colon): > 100 µM | TGI (SK-OV-3 ovarian): 46 µM | TGI (MOLT-4 leukemia): 56.6 µM | TGI (RXF-631 renal): 58.7 µM | TGI (SN12C renal): 58.6 µM | TGI (A498 renal): 64.9 µM | TGI (UACC-257 melanoma): > 100 µM | TGI (EKVX NSCLC): > 100 µM | TGI (HL-60(TB) leukemia): > 100 µM | TGI (HOP-18 NSCLC): 46.3 µM | TGI (K-562 leukemia): > 100 µM | TGI (KM12 colon): 41.9 µM | TGI (HCT-116 colon): 38.8 µM | TGI (OVCAR-3 ovarian): 56.1 µM | TGI (A549 NSCLC): 62.4 µM

Reference: PubChem BioAssay (NCI)
